Values of other authors in US9000165B2 (priority 2011, dated 2015).

Assays:
[1] = test system: cholinergic muscarinic receptors
[2] = biological target: T1, serotonin 5-HT2C receptors (Homo sapiens, UniProt P28335)
T1 sequence (P28335 33-458): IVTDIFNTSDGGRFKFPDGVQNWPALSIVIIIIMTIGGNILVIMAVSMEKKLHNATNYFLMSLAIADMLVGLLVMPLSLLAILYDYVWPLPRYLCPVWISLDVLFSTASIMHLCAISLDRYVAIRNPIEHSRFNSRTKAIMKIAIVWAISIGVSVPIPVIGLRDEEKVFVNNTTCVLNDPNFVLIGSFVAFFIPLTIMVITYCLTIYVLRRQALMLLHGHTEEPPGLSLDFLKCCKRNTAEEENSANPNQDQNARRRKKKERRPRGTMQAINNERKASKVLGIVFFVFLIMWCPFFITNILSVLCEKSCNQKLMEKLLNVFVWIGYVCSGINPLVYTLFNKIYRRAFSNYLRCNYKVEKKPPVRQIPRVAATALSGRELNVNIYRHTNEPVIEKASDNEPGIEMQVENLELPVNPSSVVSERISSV

[3] = biological target: serotonin 5-HT2A receptors (Homo sapiens, UniProt P28223)
[4] = test system: α1-adrenaline agonist receptors
serotonin reuptake sites = serotonin reuptake sites (Homo sapiens, UniProt P31645)
histamine H1 receptors = histamine H1 receptors (Homo sapiens, UniProt P35367)
[5] = biological target: T2, serotonin 5-HT1A receptors (Homo sapiens, UniProt P08908)
T2 sequence (P08908 1-422): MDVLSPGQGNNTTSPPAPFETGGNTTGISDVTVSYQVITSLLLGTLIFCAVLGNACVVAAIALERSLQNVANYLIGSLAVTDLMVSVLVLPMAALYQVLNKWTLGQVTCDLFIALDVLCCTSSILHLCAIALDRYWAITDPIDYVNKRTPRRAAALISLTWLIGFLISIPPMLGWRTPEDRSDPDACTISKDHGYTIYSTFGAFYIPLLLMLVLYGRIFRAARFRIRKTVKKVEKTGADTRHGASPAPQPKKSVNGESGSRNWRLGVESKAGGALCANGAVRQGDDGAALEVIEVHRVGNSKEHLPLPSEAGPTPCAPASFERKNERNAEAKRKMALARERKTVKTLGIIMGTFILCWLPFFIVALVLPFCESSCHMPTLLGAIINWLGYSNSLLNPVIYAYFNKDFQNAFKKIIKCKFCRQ

[6] = upon exposure to moisture converts into the hydrate form

serotonin 5-HT2A receptors, sequence (P28223 whole entry): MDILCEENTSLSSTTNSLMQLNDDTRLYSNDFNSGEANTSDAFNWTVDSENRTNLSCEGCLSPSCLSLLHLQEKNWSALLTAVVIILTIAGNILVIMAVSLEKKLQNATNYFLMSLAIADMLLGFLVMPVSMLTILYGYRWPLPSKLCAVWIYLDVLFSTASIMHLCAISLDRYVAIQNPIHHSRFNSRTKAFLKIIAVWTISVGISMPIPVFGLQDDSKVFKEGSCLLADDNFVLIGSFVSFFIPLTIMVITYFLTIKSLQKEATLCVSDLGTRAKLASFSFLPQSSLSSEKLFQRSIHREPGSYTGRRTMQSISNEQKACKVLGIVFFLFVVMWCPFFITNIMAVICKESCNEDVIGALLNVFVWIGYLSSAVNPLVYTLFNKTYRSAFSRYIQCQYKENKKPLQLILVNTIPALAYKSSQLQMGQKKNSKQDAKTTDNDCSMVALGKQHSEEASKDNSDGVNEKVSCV
serotonin reuptake sites, sequence (P31645 whole entry): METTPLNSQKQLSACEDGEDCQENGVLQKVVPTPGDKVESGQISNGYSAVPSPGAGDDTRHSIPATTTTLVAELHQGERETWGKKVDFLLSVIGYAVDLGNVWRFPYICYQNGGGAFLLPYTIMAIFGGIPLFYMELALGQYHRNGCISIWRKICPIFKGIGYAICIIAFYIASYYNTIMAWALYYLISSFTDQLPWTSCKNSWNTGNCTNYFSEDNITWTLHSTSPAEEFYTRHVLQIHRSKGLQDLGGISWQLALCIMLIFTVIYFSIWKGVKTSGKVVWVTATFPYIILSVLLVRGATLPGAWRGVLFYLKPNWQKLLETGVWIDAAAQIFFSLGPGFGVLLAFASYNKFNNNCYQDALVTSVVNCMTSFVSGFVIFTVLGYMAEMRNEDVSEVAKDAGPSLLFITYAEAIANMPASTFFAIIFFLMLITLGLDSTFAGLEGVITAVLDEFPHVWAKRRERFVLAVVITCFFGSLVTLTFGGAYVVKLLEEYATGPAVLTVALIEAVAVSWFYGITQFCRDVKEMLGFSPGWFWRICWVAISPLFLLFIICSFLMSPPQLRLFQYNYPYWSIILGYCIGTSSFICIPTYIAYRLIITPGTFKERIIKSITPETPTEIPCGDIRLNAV
histamine H1 receptors, sequence (P35367 whole entry): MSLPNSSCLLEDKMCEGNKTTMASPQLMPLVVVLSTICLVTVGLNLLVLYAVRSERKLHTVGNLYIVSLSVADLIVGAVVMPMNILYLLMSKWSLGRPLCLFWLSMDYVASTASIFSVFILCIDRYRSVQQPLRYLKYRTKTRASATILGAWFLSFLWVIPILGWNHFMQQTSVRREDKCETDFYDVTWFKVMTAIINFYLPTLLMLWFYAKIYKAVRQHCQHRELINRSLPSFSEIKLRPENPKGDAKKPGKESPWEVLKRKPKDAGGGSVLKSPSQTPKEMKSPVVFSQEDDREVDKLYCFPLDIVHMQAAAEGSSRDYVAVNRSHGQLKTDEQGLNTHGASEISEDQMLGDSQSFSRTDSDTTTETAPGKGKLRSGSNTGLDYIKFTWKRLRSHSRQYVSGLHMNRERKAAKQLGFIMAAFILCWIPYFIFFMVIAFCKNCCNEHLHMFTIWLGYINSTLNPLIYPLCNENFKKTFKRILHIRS

For `O=C1CCc2ccc(OCCCCN3CCN(c4cccc(Cl)c4Cl)CC3)cc2N1` [Aripiprazole], the “affinity for cholinergic muscarinic receptors” value [1] is given as “no detectable affinity”, the “affinity for serotonin 5-HT2C receptors” value [2] is given as “mild affinity” and the “affinity for serotonin 5-HT2A receptors” value [3] is given as “potent affinity”. The “affinity for α1-adrenaline agonist receptors” value [4] was “mild affinity”, the “affinity for serotonin reuptake sites” value (serotonin reuptake sites) was “mild affinity” and the “affinity for histamine H1 receptors” value (histamine H1 receptors) was “mild affinity”. The “affinity for serotonin 5-HT1A receptors” value [5] was “potent affinity”.
In the case of `O=C1CCc2ccc(OCCCCN3CCN(c4cccc(Cl)c4Cl)CC3)cc2N1` [anhydrous aripiprazole crystal form I, Aripiprazole], the hygroscopic property [6] is listed as “significant hygroscopic property”.
